How the values were obtained:
heart vasculature = experiment: In vivo phage homing to the heart after intravenous injection; conditions: peptide displayed on T7Select 415-1 phage, assayed individually, intravenous injection into mice
Method: In vivo panning was performed as follows. The ex vivo-selected phage pool (5 x 10^9 p.f.u.) was intravenously injected into mice through the tail vein and allowed to circulate for ten minutes before mice were carefully perfused through the left ventricle with DMEM in order to remove unbound intravascular phage. The heart and control tissues (brain, kidney, skin and muscle) were excised, and phage recovered as described in Hoffman et al., supra, 2004. Phage recovered from the heart were reinjected into mice, and the cycle was repeated for a total of three rounds. Non-recombinant phage were injected into a separate mouse as a control in each experiment.
As summarized in Table 1, receptor clone 5 represents the carboxy-terminal 92 amino acids of heart LIM-protein (HLP), also designated cysteine-rich protein 2 (CRIP2) and ESP 1. HLP, which is expressed in the vascular heart (Yu et al., Mech. Dev. 116:187-192 (2002)) is a LIM domain-containing protein having homology to Crp-1 (Karim et al., Genomics 31:167-176 (1996); and van Ham et al., Genes Cells 8:631-644 (2003)). Of the five positive colonies from the two-hybrid analysis with the HLP clone, three cognate peptides were identified: CRPPR (SEQ ID NO: 1) was present twice, CGRKSKTVC (SEQ ID NO: 2) once and CGNQVDSRC (SEQ ID NO: 3) twice. After cloning these peptides into the T7Select 415-1 display vector, they were assayed for their ability to home to heart vasculature following intravenous injection. Relative to non-recombinant phage, the CRPPR (SEQ ID NO: 1)-displaying phage homed with more than 300 fold selectivity to the heart (Figure 2A).
Individual phage clones were reconstructed as follows. Oligonucleotides that encoded peptides from selected bait plasmids were synthesized, phosphorylated with T4 polynucleotide kinase (PNK; NEB) at 37°C for one hour, and annealed at a concentration of 0.08 pmol/µl. The annealed inserts were diluted to 0.04 pmol/µl and ligated into T7Select 415-1 arms (Novagen) with T4 ligase overnight at 16°C. The next day, intact recombinant phage were prepared by mixing the ligation reaction with packaging extracts as described by the manufacture. Inserts were confirmed by sequencing, and individual clones were amplified for ex vivo and in vivo testing as described in Example I above.

bc10 = experiment: Phage binding to 293T cells transfected with cognate receptor, with free peptide competition; parameters: species or system murine
Method: (§1) Full-length cDNAs were constructed for four of the putative heart homing receptors, HLP/CRIP2, Sigirr/TIR8, and MpcII-3-related protein and bc10, and expressed in 293T cells. […]
(§2) Receptor transfections and phage binding assays were performed as follows. 293T cells were transfected with pMH6-derived plasmids (Roche Diagnostics; Indianapolis, IN) encoding HLP/CRIP2, Sigirr/TIR8, MpcII-3-retated protein and bc10 using the Fugene transfection reagent (Roche Diagnostics). Briefly, 10 µg of plasmid was mixed with 700 µl of serum-free DMEM and 30 µl of Fugene transfection reagent and incubated for 15 minutes at room temperature before the mixture was added to cells. After forty-eight hours, cells were detached from culture dishes using EDTA and washed once with PBS. Phage displaying CRPPR (SEQ ID NO: 1), CKRAVR (SEQ ID NO: 7), CRSTRANPC (SEQ ID NO: 11) or CPKTRRVPC (SEQ ID NO: 12) and nonrecombinant control phage (1 x 10^9 p.f.u) were incubated with transfected cells for two hours at 4°C. Unbound phage were removed by five washes with 1% BSA in PBS. Bound phage were rescued by addition of bacteria; binding efficiencies were determined by plaque assay as described above.
(§3) Peptides for competition assays were synthesized at The Burnham Institute peptide facility using Fmoc chemistry in a solid-phase synthesizer prior to purification by HPLC and confirmation of their identity by mass spectrometry. Fluorescein-conjugated peptides were synthesized as described in Wender et al., Proc. Natl. Acad. Sci. USA 97:13003-13008 (2000). Competition assays were performed by addition of 100 µg peptide to the cells and phage, followed by incubation at 4°C for two hours. After five washes with […], bound phage were rescued and quantitated by plaque assay.

heart endothelia = experiment: Phage localization in tissues: co-injection with fluorescein-conjugated tomato lectin, anti-T7 immunostaining; format: in vivo, mice; conditions: peptide displayed on phage, anti-T7 antibody; for phage presence in heart endothelia: injected intravenously with fluorescein-conjugated tomato lectin; for phage detection in tissues other than heart: same conditions
Method: Further characterization was performed on the five most efficient homing peptides, as indicated by the fold-selectivity summarized in Table 1, and their putative receptors. These homing peptides were analyzed for the ability to selectively bind heart endothelia in vivo and for specific binding to their putative receptors, which also were analyzed for expression in heart endothelia. Each of the phage-displaying a particular homing peptide was individually injected intravenously into mice with fluorescein-conjugated tomato lectin, a blood vessel marker. […] None of the six phage were detected in tissues other than heart under the same conditions.
Immunohistochemistry was performed as follows. Rat monoclonal anti-mouse CD31 (1:100) was obtained from BD Pharmingen (San Jose, CA), and rabbit polyclonal anti-T7 phage (1:500), and chicken anti-mouse CRIP2 IgY (1:100) were obtained from GenWay (San Diego, CA). Secondary antibodies, AlexaFluor-488 goat anti-rat IgG (1:1000) and AlexaFluor-594 goat anti-rat or rabbit IgG (1:1000) were obtained from Molecular Probes (Eugene, OR); the secondary antibody GAYFC-AlexaFluor 594 goat anti-IgY Fc (1:250) was obtained from GenWay. Frozen sections were preincubated with blocking buffer (5% normal goat serum and 0.5% BSA in 1x PBS) for one hour, washed three times with PBS, and incubated with the primary antibody of interest overnight at 4°C. After the overnight incubation, secondary antibodies were added and incubated for one hour at room temperature. Slides were washed three times with PBS and mounted in Vectashield Mounting Medium with DAPI (Vector Laboratories; Burlingame, California). Blood vessels were additionally visualized by intravenous injection with Lycopersicon esculentum (tomato) lectin conjugated to fluorescein (100 µg in 200 µl of PBS) purchased from Vector Laboratories.

MpcII-3-related protein = experiment: Phage binding to 293T cells transfected with cognate receptor, with free peptide competition; parameters: species or system murine
Method: as §1, §2, §3

[1] = conclusion from phage binding and competition on transfected 293T cells

Sequence: CPKTRRVPC [tested on phage and as free peptide]
- heart homing selectivity relative to non-recombinant phage (heart vasculature): about 60 fold
- specific binding to the receptor (in words) (bc10; [1]): specifically binds
- inhibition of phage binding to transfected cells by competition with free peptide (bc10; free synthetic peptide 100 µg/ml, CPKTRRVPC phage on bc10 transfected cells): inhibited
- phage presence in heart endothelia (heart endothelia): present in heart endothelia
- phage detection in tissues other than heart (heart endothelia): absent from other tissues

Sequence: CSGMARTKC
- heart homing selectivity relative to non-recombinant phage (heart vasculature): ~10 fold

Sequence: CGRKSKTVC
- heart homing selectivity relative to non-recombinant phage (heart vasculature): about 50 fold

Sequence: CLIDLHVMC [peptide identified with receptor clone 27; phage served as a negative control]
- phage presence in heart endothelia (heart endothelia): absent from the heart
- phage detection in tissues other than heart (heart endothelia): absent from the heart and other tissues

Sequence: CRSTRANPC [tested on phage and as free peptide]
- heart homing selectivity relative to non-recombinant phage (heart vasculature): about 20 fold
- specific binding to the receptor (in words) (MpcII-3-related protein; [1]): specifically binds
- inhibition of phage binding to transfected cells by competition with free peptide (MpcII-3-related protein; free synthetic peptide 100 mg/ml, CRSTRANPC phage on cells transfected with MpcII-3-related protein): inhibited
- phage presence in heart endothelia (heart endothelia): present in heart endothelia
- phage detection in tissues other than heart (heart endothelia): absent from other tissues
